Test results from patent publication US8999891B2, “Method for controlling weeds in turf” (Dow AgroSciences LLC, priority 2013, dated 2015).

Tests used:
White Clover (TRFRE) = assay: Greenhouse post-emergence weed control, visual percent control; type: in vivo, Trifolium repens; conditions: 1 week after treatment, florasulam 0.001 g ai/ha, fluroxypyr 0.01 g ae/ha, 2,4-D 0.11 g ae/ha, alone or in the mixture, 0 = no control, 100 = complete kill
Description: Studies were applied post-emergence to broadleaf weeds reared from seed in 5″ square pots in 80% mineral/20% grit field soil. Stage of growth of species at application: EPHSU in the 3 to 5 leaf stage and TRFRE in the 3rd tri-foliate stage. Post-emergence trial design was a replicated block, one species per pot, 4 replicate pots per treatment. Post-emergence applications were made to the pot with a tracksprayer calibrated to 187 liters per hectare (L/ha), 40 pounds per square inch (PSI) at 1.9 miles per hour (mph) using an 8003E Teejet nozzle covering both soil and foliage. Trial was sub-irrigated daily. Active weed growth was maintained throughout the study period. Weed control of each species in the post-emergence study was assessed at 1, 2 and 3 weeks after treatment. Control was determined visually by comparing treated and untreated pots and scored on a 0 to 100 percent scale where 0 corresponds to no control and 100 corresponds to complete kill.
In the foregoing examples, the following equation was used to calculate the expected activity of mixtures containing three herbicidal active ingredients:
(§1) [formula] A=observed efficacy of a first active ingredient at the same concentration as used in the mixture. B=observed efficacy of a second active ingredient B at the same concentration as used in the mixture. C=observed efficacy of a third active ingredient C at the same concentration as used in the mixture. The following abbreviations are used in the tables: g ai/ha=grams active ingredient per hectare g ae/ha=grams acid equivalent per hectare DAA=days after application.

Ground Ivy (GLEHE) = assay: Field study in turf, average % weed control; type: in vivo, Glechoma hederacea
Description: (§2) Replicated applications were made to small plots (i.e. 5′×5′, 3′×10′) using a CO2 backpack sprayer. Florasulam SC (EF-1343), fluoroxypyr (Starane® Ultra) and 2,4-D (DMA® 4) are produced by Dow AgroSciences LLC, Indianapolis, Ind. Applications at each site were made at typical postemergent herbicide timing for that particular study location. Applications were generally timed for peak dandelion bloom in the northern cool-season turf market and throughout the year in the warm-season turf market where winter and summer annual and perennial weeds are targeted. Weed control evaluations were made as percent weed cover per plot and converted to percent control based on weed levels in the untreated control. Evaluations were made at various timing after application for eight to ten weeks.
as §1

White Cover (TRFRE) = assay: Field study in turf, average % weed control; type: in vivo, Trifolium repens; conditions: 62 DAA, florasulam 5.2 g ai/ha, fluroxypyr 52.9 g ae/ha, 2,4-D 520 g ae/ha, alone or in the mixture
Description: as §2, §1

Dandelion (TAROF) = assay: Field study in turf, average % weed control; type: in vivo, Taraxacum officinale; conditions: 55 DAA, florasulam 5.2 g ai/ha, fluroxypyr 52.9 g ae/ha, 2,4-D 520 g ae/ha, alone or in the mixture
Description: as §2, §1

[1] = 28 DAA, florasulam 2.3 g ai/ha, fluroxypyr 26.5 g ae/ha, 2,4-D 260.6 g ae/ha alone (260.0 in the mixture)
[2] = 56 DAA, florasulam 5.2 g ai/ha, fluroxypyr 52.9 g ae/ha, 2,4-D 520 g ae/ha, alone or in the mixture

Row | Structure (SMILES) | Observed percent control (White Clover (TRFRE)) [%] | Observed Average % Weed Control (Ground Ivy (GLEHE); [1]) [%] | Observed Average % Weed Control (Ground Ivy (GLEHE); [2]) [%] | Observed Average % Weed Control (White Cover (TRFRE)) [%] | Observed Average % Weed Control (Dandelion (TAROF)) [%]
1 | O=C(O)COc1ccc(Cl)cc1Cl [2,4-D, (2,4-dichlorophenoxy)acetic acid] | 1.7 | 41.0 | 41.7 | 20.0 | 45.6
2 | COc1ncc(F)c2nc(S(=O)(=O)Nc3c(F)cccc3F)nn12 [Florasulam, 2′,6′,8-trifluoro-5-methoxy[1,2,4]triazolo[1,5-c]pyrimidine-2-sulfonanilide] | 10.3 | 0.0 | 0.0 | 23.8 | 25.0
3 | Nc1c(Cl)c(F)nc(OCC(=O)O)c1Cl [Fluroxypyr, [(4-amino-3,5-dichloro-6-fluoro-2-pyridinyl)oxy]acetic acid] | 35 | 0.0 | 0.0 | 31.3 | 14.3
